How the values were obtained:
Jurkat cells = assay: IL-2 release Jurkat assay (anti-CD3/anti-CD28 stimulation, IL-2 ELISA); type: cell-based, human; settings: activation with 400 ng/mL aCD3 + 400 ng/mL aCD28, 24 hours
recombinant HPK1 protein = biological target: T1, recombinant HPK1 protein (Homo sapiens, UniProt Q92918); assay: Primary assay of HPK1 enzymatic activity inhibition (ADP-Glo luminescence); type: biochemical; settings: recombinant HPK1, MBP substrate, 1 hour at room temperature
T1 construct: purchased Promega V6398
T1 sequence (Q92918 1-346 limits assumed): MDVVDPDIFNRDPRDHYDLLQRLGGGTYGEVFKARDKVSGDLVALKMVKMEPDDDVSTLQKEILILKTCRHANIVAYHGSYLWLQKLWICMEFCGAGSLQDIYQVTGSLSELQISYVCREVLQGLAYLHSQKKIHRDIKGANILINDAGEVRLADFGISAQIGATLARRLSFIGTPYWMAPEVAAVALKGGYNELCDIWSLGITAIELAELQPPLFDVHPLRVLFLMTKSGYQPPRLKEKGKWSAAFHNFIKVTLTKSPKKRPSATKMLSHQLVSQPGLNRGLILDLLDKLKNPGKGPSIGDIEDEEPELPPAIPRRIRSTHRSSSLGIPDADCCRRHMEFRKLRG

[1] = Table C: Jurkat, 6 μM of tested compounds, stimulated vehicle = A
[2] = Table B: Jurkat, 1.5 μM of tested compounds
[3] = Table D: Jurkat, 6 μM of tested compounds, stimulated vehicle = B
[4] = Table E: Jurkat, 1.5 μM of tested compounds
[5] = Table F: Jurkat, 1.0 μM of tested compounds

SMILES | IC50 (recombinant HPK1 protein) [nM] | IL-2, pg/mL stimulated (Jurkat cells; [2]) | also measured
CCOC(=O)c1cnc(Nc2ccc(S(=O)(=O)C(C)C)cc2)nc1N[C@H](CO)c1ccccc1 [Compound 274, Ethyl 4-{[(1S)-2-hydroxy-1-phenylethyl]amino}-2-{[4-(propan-2-ylsulfonyl)phenyl]amino}pyrimidine-5-carboxylate] | 200 to 500 | – | IL-2, pg/mL stimulated (Jurkat cells; [1]): B (50 pg/mL≤IL-2<100 pg/mL)
CC(C)NC(=O)c1cnc(Nc2ccc(F)c(-c3ccccc3)c2)nc1N[C@H](CO)c1ccccc1 [Compound 293, 2-[(6-fluorobiphenyl-3-yl)amino]-4-{[(1S)-2-hydroxy-1-phenylethyl]-amino}-N-(propan-2-yl)pyrimidine-5-carboxamide] | 200 to 500 | D (35.0 pg/mL≤IL-2) | –
CCOC(=O)c1cnc(Nc2ccc(S(C)(=O)=O)c(OC)c2)nc1N[C@H](CO)c1ccccc1 [Compound 300, Ethyl 4-{[(1S)-2-hydroxy-1-phenylethyl]amino}-2-{[3-methoxy-4-(methylsulfonyl)phenyl]amino}pyrimidine-5-carboxylate] | 50 to 200 | – | IL-2, pg/mL stimulated (Jurkat cells; [1]): A (IL-2<50 pg/mL)
CC(C)NC(=O)c1cnc(Nc2ccc(S(C)(=O)=O)c(F)c2)nc1N[C@H](CO)c1ccccc1 [Compound 301, 2-{[3-fluoro-4-(methylsulfonyl)phenyl]amino}-4-{[(1S)-2-hydroxy-1-phenylethyl]amino}-N-(propan-2-yl)pyrimidine-5-carboxamide] | 200 to 500 | A (IL-2<5.0 pg/mL) | –
CS(=O)(=O)c1ccc(Nc2ncc(C(=O)OCCO)c(N[C@H](CO)c3ccccc3)n2)cc1F [Compound 319] | < 50 | – | IL-2, pg/mL stimulated (Jurkat cells; [1]): D (150 pg/mL≤IL-2)
COCCNC(=O)c1cnc(Nc2ccc(S(C)(=O)=O)c(C)c2)nc1N[C@H](CO)c1ccccc1 [Compound 372, 4-[[(1S)-2-hydroxy-1-phenyl-ethyl]amino]-N-(2-methoxyethyl)-2-(3-methyl-4-methylsulfonyl-anilino)pyrimidine-5-carboxamide] | 200 to 500 | – | IL-2, pg/mL stimulated (Jurkat cells; [1]): C (100 pg/mL≤IL-2<150 pg/mL)
CN1CCc2cc(Nc3ncc(C(=O)NC4CCCC4)c(N[C@H](CO)c4ccccc4)n3)ccc2C1=O [Compound 389, N-cyclopentyl-4-{[(1S)-2-hydroxy-1-phenylethyl]amino}-2-[(2-methyl-1-oxo-1,2,3,4-tetrahydroisoquinolin-6-yl)amino]pyrimidine-5-carboxamide] | 50 to 200 | C (25.0 pg/mL≤IL-2<35.0 pg/mL) | –
COCCNC(=O)c1cnc(Nc2ccc(S(C)(=O)=O)c(F)c2)nc1N[C@H](CO)c1ccccc1 [Compound 401, 2-(3-fluoro-4-methylsulfonyl-anilino)-4-[[(1S)-2-hydroxy-1-phenyl-ethyl]amino]-N-(2-methoxyethyl)-pyrimidine-5-carboxamide] | 50 to 200 | – | IL-2, pg/mL stimulated (Jurkat cells; [1]): A (IL-2<50 pg/mL)
Cc1cc(Nc2ncc(C(=O)NC3CCCC3)c(N[C@H](CO)c3ccccc3)n2)ccc1S(C)(=O)=O [Compound 434, N-cyclopentyl-4-{[(1S)-2-hydroxy-1-phenylethyl]amino}-2-{[3-methyl-4-(methylsulfonyl)phenyl]amino}pyrimidine-5-carboxamide] | 200 to 500 | B (5.0 pg/mL≤IL-2<25.0 pg/mL) | –
Cc1cc(Nc2ncc(C(=O)NCC(F)(F)F)c(N[C@H](CO)c3ccccc3)n2)ccc1S(C)(=O)=O [Compound 490, 4-{[(1S)-2-hydroxy-1-phenylethyl]amino}-2-{[3-methyl-4-(methylsulfonyl)phenyl]amino}-N-(2,2,2-trifluoroethyl)pyrimidine-5-carboxamide] | < 50 | B (5.0 pg/mL≤IL-2<25.0 pg/mL) | –
O=C(NCC(F)(F)F)c1cnc(Nc2ccc(F)c(-c3ccccc3)c2)nc1N[C@H](CO)c1ccccc1 [Compound 499, 2-[(6-fluorobiphenyl-3-yl)amino]-4-{[(1S)-2-hydroxy-1-phenylethyl]-amino}-N-(2,2,2-trifluoroethyl)pyrimidine-5-carboxamide] | 200 to 500 | C (25.0 pg/mL≤IL-2<35.0 pg/mL) | –
CCOC(=O)c1cnc(Nc2ccc(C(N)=O)c(Cl)c2)nc1N[C@H](CO)c1ccccc1 [Compound 559, Ethyl 2-(4-carbamoyl-3-chloro-anilino)-4-[[(1S)-2-hydroxy-1-phenyl-ethyl]amino]pyrimidine-5-carboxylate] | < 50 | – | IL-2, pg/mL stimulated (Jurkat cells; [3]): D (150 pg/mL≤IL-2)
CCOC(=O)c1cnc(Nc2ccc(C(=O)NC)c(Cl)c2)nc1N[C@H](CO)c1ccccc1 [Compound 560, Ethyl 2-[3-chloro-4-(methylcarbamoyl)anilino]-4-[[(1S)-2-hydroxy-1-phenyl-ethyl]amino]pyrimidine-5-carboxylate] | 50 to 200 | – | IL-2, pg/mL stimulated (Jurkat cells; [3]): D (150 pg/mL≤IL-2)
CCOC(=O)CCCCCc1nnc(-c2cnc(Nc3ccc(S(C)(=O)=O)c(C)c3)nc2N[C@H](CO)c2ccccc2)o1 [Compound 561, Ethyl 6-[5-[4-[[(1S)-2-hydroxy-1-phenyl-ethyl]amino]-2-(3-methyl-4-methylsulfonyl-anilino)pyrimidin-5-yl]-1,3,4-oxadiazol-2-yl]hexanoate] | 50 to 200 | – | IL-2, pg/mL stimulated (Jurkat cells; [3]): B (50 pg/mL≤IL-2<100 pg/mL)
CS(=O)(=O)c1cnc(Nc2ccc3c(c2)CCNC3=O)nc1N[C@H](CO)c1ccccc1 [Compound 564, 6-[[4-[[(1S)-2-hydroxy-1-phenyl-ethyl]amino]-5-methylsulfonyl-pyrimidin-2-yl]amino]-3,4-dihydro-2H-isoquinolin-1-one] | < 50 | B (5.0 pg/mL≤IL-2<25.0 pg/mL) | –
CCOC(=O)c1cnc(Nc2ccc3c(c2)CCCNC3=O)nc1N[C@H](CO)c1ccccc1 [Compound 566, ethyl 4-[[(1S)-2-hydroxy-1-phenyl-ethyl]amino]-2-[(1-oxo-2,3,4,5-tetrahydro-2-benzazepin-7-yl)amino]pyrimidine-5-carboxylate] | < 50 | – | IL-2, pg/mL stimulated (Jurkat cells; [4]): D (150 pg/mL≤IL-2)
CCOC(=O)c1cnc(Nc2ccc3c(c2)CCNC3=O)nc1N[C@@H](CO)c1ccccc1 [Compound 568, ethyl 4-[[(1R)-2-hydroxy-1-phenyl-ethyl]amino]-2-[(1-oxo-3,4-dihydro-2H-isoquinolin-6-yl)amino]pyrimidine-5-carobxylate] | 50 to 200 | A (IL-2<5.0 pg/mL) | –
CCOC(=O)c1cnc(Nc2ccc3c(c2)CCNC3=O)nc1N[C@H](CO)c1ccc(OC)cc1 [Compound 569, ethyl 4-[[(1S)-2-hydroxy-1-(4-methoxyphenyl)ethyl]amino]-2-[(1-oxo-3,4-dihydro-2H-isoquinolin-6-yl)amino]pyrimidine-5-carboxylate] | < 50 | C (25.0 pg/mL≤IL-2<35.0 pg/mL) | –
CCOC(=O)c1cnc(Nc2ccc3c(c2)CCNC3=O)nc1N[C@H](CO)c1cccc(OC)c1 [Compound 570, ethyl 4-[[(1S)-2-hydroxy-1-(3-methoxyphenyl)ethyl]amino]-2-[(1-oxo-3,4-dihydro-2H-isoquinolin-6-yl)amino]pyrimidine-5-carboxylate] | < 50 | B (5.0 pg/mL≤IL-2<25.0 pg/mL) | –
CCOC(=O)c1cnc(Nc2ccc3c(c2)CCCS3(=O)=O)nc1N[C@H](CO)c1ccccc1 [Compound 573, ethyl 2-[(1,1-dioxo-3,4-dihydro-2H-thiochromen-6-yl)amino]-4-[[(1S)-2-hydroxy-1-phenyl-ethyl]amino]pyrimidine-5-carboxylate] | < 50 | – | IL-2, pg/mL stimulated (Jurkat cells; [4]): C (100 pg/mL≤IL-2<150 pg/mL)
COc1cccc([C@@H](CO)Nc2nc(Nc3ccc4c(c3)CCNC4=O)ncc2-c2nc(C)no2)c1 [Compound 575, 6-[[4-[[(1S)-2-hydroxy-1-(3-methoxyphenyl)ethyl]amino]-5-(3-methyl-1,2,4-oxadiazol-5-yl)pyrimidin-2-yl]amino]-3,4-dihydro-2H-isoquinolin-1-one] | < 50 | – | IL-2, pg/mL stimulated (Jurkat cells; [4]): C (100 pg/mL≤IL-2<150 pg/mL)
Cc1noc(-c2cnc(Nc3ccc4c(c3)CC(C)(C)NC4=O)nc2N[C@H](CO)c2ccccc2)n1 [Compound 578, 6-[[4-[[(1S)-2-hydroxy-1-phenyl-ethyl]amino]-5-(3-methyl-1,2,4-oxadiazol-5-yl)pyrimidin-2-yl]amino]-3,3-dimethyl-2,4-dihydroisoquinolin-1-one] | < 50 | – | IL-2, pg/mL stimulated (Jurkat cells; Table G: Jurkat, 1.0 μM of tested compounds): C (100 pg/mL≤IL-2<150 pg/mL)
Cc1noc(-c2cnc(Nc3ccc4c(c3)C(C)(C)NC4=O)nc2N[C@H](CO)c2ccccc2)n1 [Compound 579, 5-[[4-[[(1S)-2-hydroxy-1-phenyl-ethyl]amino]-5-(3-methyl-1,2,4-oxadiazol-5-yl)pyrimidin-2-yl]amino]-3,3-dimethyl-isoindolin-1-one] | < 50 | – | IL-2, pg/mL stimulated (Jurkat cells; [5]): A (IL-2<50 pg/mL)
Cc1noc(-c2cnc(Nc3ccc4c(c3)CCN(COCC[Si](C)(C)C)C4=O)nc2N[C@H](CO)c2ccccc2)n1 [Compound 582, 6-[[4-[[(1S)-2-hydroxy-1-phenyl-ethyl]amino]-5-(3-methyl-1,2,4-oxadiazol-5-yl)pyrimidin-2-yl]amino]-2-(2-trimethylsilylethoxymethyl)-3,4-dihydroisoquinolin-1-one] | 50 to 200 | – | IL-2, pg/mL stimulated (Jurkat cells; [5]): B (50 pg/mL≤IL-2<100 pg/mL)
